# According to publication PMC3726599, “A Metabolically-Stabilized Phosphonate Analog of Lysophosphatidic Acid Attenuates Collagen-Induced Arthritis” (PLoS ONE, 2013):
# What was measured:
# recombinant ATX = target: T1, recombinant ATX (Homo sapiens, UniProt Q13822); test: TOOS activity assay, LPC hydrolysis by recombinant ATX; assay type: biochemical; details: for Vmax of ATX in presence of BrP-LPA: 16:0 LPC 100–400 μΜ, mean(std); for % Inhibition at 10 μΜ: BrP-LPA 10 μΜ; for IC50: [S] 50 μΜ, 2 nM ATX
# T1 construct: purchased SinoBiological Inc (main data); R&D (additional Km values)
# Protocol: ATX/LysoPLD activity was assessed based on the amount of choline released from LPC with the use of TOOS (N-ethyl-N-(2-hydoroxy-3-sulfopropyl)-3-methylaniline) reagent. In this assay ATX-mediated LPC-liberated choline is oxidised by choline oxidase to betaine and hydrogen peroxide (H2O2). The latter in the presence of horseradish peroxidase reacts with TOOS and 4-aminoantipyrene (4-AAP) to form a pink quinoneimine dye measured at 555 nm.
# Diluted plasma samples (100 fold dilution; final EDTA concentration 0.5 mM) or recombinant ATX protein (2 nM) were incubated with LPC in the presence of 100 mmol/l Tris–HCl/pH 9.0, 500 mmol/l NaCl, 5 mmol/l MgCl2, 5 mmol/l CaCl2, 60 μM CoCl2 and 0.05% Triton X-100 for 3 h at 37°C at a final volume of 100 μl. It should be noted that EDTA was used not only as an anticoagulant but also as an inhibitor of ATX activity ex vivo [46], in order to suppress artificial LPA production during blood withdrawal and plasma preparation; this is because the same samples were used in phospholipid measurements.
# The liberated choline was detected by adding 100 μl of a color mix containing 4-AAP and TOOS (0.3 mM), horseradish peroxidase (5.3 UnitmL^−1) and choline oxidase (2 UnitmL^−1). Absorbance was measured at 555 nm and data were analyzed using the statistical software package Prism 4.0 (Graphpad Software Inc, La Jolla, CA, USA). For each sample and control the absorbance was plotted against time and the slope (da/min) for the linear (steady-state) portion of each reaction profile was calculated. Absorbance units were converted to nmol of choline/min/ml by comparison with a choline standard curve or by use of the extinction coefficient for the quinoneimine dye according to the following equation: [drawing 1] Where Vt* is the total volume of reaction in ml (0.2 ml); Vs* is the volume of sample in ml; e is the millimolar extinction coefficient of quinoneimine dye under the assay conditions (e = e = […]); and 1/2: Factor based on the fact that 1 mol of hydrogen peroxide produces 1/2 mol of quinoneimine dye.
# The biochemistry of lyso-PLD was assessed by following the kinetics data using a wide panel of different ATX substrates [FS-3, different LPC species (14:0, 16:0, 18:0, 18:1)], three different recombinant ATX proteins (R&D, Sino-Biological and Echelon) and three different ATX activity assays (FS-3, TOOS, Amplex Red). The ATX activity was measured at different substrate concentrations (typically from 1-1000 μM) in order to examine whether ATX follows Michaelis-Menten kinetics. The Michaelis constant (Km) was obtained by fitting the substrate dependence of V (ATX activity) to a rectangular hyperbola using the non-linear regression analysis of the statistical software package Prism 4.0 (GraphPad Software, Inc.). Km and Vmax were evaluated from the rectangular hyperbola curve with the use of GraphPad software.
# For in vitro inhibition measurements, BrP-LPA was dissolved in water as a stock solution (4 mM) and appropriate dilutions were made in water. The inhibition of ATX by BrP-LPA was measured employing 2 nM recombinant ATX, 50 μΜ LPC (14:0, 16:0, 18:0) and 0.01 to 100 μmol/L of BrP-LPA (final concentrations). The in vitro inhibition of ATX by BrP-LPA was evaluated with three different assays (FS-3, Amplex Red, and TOOS). […] BrP-LPA was also tested for its ability to inhibit mouse plasma ATX activity. Diluted mouse plasma was used as the source of ATX and the analysis of inhibition was made with TOOS as the in vitro inhibition assay.
# The inhibition model (competitive, noncompetitive, or mixed type inhibition) was evaluated by graphical analysis with Lineweaver–Burk double reciprocal plots (1/[velocity] versus 1/[substrate]) and Cornish-Bowden plot ([substrate]/[velocity] versus [Inhibitor]). These plots were generated by the measurement of ATX activity in the presence of different BrP-LPA concentrations (0–10 μΜ) and increased amounts of 16:0 LPC (100, 200, 400 μΜ). […]
# A549 cell = system: A549 cell; parameters: method as in PMID 20143443; details: A549, in vitro; cited from earlier work
# lymphocyte trafficking = system: lymphocyte trafficking; parameters: method as in PMID 23365076; details: cited from earlier work
smiles,measurement,setting,value
"CCCCCCCCCCCCCCCC(=O)OC[C@@H](O)CC(Br)P(=O)(O)O (stereo partly drawn) [BrP-LPA, 1-bromo-3(S)-hydroxy-4-(palmitoyloxy)butyl-phosphonate]",mode of inhibition of ATX lysoPLD activity,"recombinant ATX; 16:0 LPC as substrate, Cornish-Bowden and Lineweaver-Burk plots",competitive
same,Vmax of ATX in presence of BrP-LPA,recombinant ATX; BrP-LPA 1 μM,51(3) nmole/min/ml
same,Vmax of ATX in presence of BrP-LPA,recombinant ATX; BrP-LPA 3 μM,71(4) nmole/min/ml
same,Vmax of ATX in presence of BrP-LPA,recombinant ATX; BrP-LPA 10 μM,54(13) nmole/min/ml
same,% Inhibition at 10 μΜ,"recombinant ATX; TOOS, 16:0 LPC 50 μΜ",80%
same,% Inhibition at 10 μΜ,"recombinant ATX; TOOS, 18:0 LPC 50 μΜ",70%
same,Ki,"recombinant ATX; TOOS, 18:0 LPC, Cheng-Prusoff from IC50",600 ± 110 nM
same,IC50,"recombinant ATX; TOOS, substrate 16:0 LPC, mean±std of two experiments",700 ± 200 nM
same,IC50,"recombinant ATX; TOOS, substrate 18:0 LPC, mean±std",900 ± 100 nM
same,cell migration and invasiveness,A549 cell,inhibit cell migration and invasiveness
same,lymphocyte trafficking in draining lymph nodes,lymphocyte trafficking,reduce lymphocyte trafficking in draining lymph nodes
